The values below come from ChEMBL document CHEMBL1136554, “p38 Inhibitors: piperidine- and 4-aminopiperidine-substituted naphthyridinones, quinolinones, and dihydroquinazolinones” (Bioorg Med Chem Lett, 2003).

Data set [1] concerns the target T1, MAP kinase p38 (Homo sapiens, UniProt O15264+Q15759+Q16539+P53778). Kind of data set: Inhibition of p38 MAP kinase. The class given is protein assay.
For data set [2], the target named is T1, MAP kinase p38. As to the kind of experiment: Inhibition of p38 kinase related TNF-alpha release. The class given is functional.
The nature of data set [3]: Oral bioavailability in rat. The class given is ADME, organism-based. The conditions noted are these: in vivo.
A short description of data set [4]: Plasma clearance measured in rat. The class given is ADME, organism-based. Conditions: read-out: Clp.

In general, IC50 refers to the concentration that inhibits the measured activity by half. Take `CC(C)N1CCC(Nc2cc(-c3ccccc3Cl)c3c(c2)N(c2c(Cl)cccc2Cl)C(=O)NC3)CC1`: the IC50 is 1.6 nM against MAP kinase p38 [1] and 31 nM on MAP kinase p38 [2].
As to `CN1C2CCC1CC(Nc1cc(-c3ccccc3Cl)c3c(c1)N(c1c(Cl)cccc1Cl)C(=O)NC3)C2` (configuration not stated), the IC50 at MAP kinase p38 [1] was 0.4 nM; on MAP kinase p38 [2], 20 nM.
As usually defined, the bioavailability is dose-corrected exposure relative to a reference, in per cent. Low values mean poor availability, high ones good availability. On to `CC(C)N1CCC(c2cc(-c3ccc(F)cc3Cl)c3c(c2)N(c2c(Cl)cccc2Cl)C(=O)CC3)CC1`, for which the IC50 turned out to be 0.8 nM against MAP kinase p38 [1] and 24 nM at MAP kinase p38 [2]. Further, the bioavailability in data set [3] came out at 10%. For the same molecule, in data set [4], the clearance came to 70 mL/min/kg.
In the case of `CC(C)N1CCC(Nc2cc3c(ccc(=O)n3-c3c(Cl)cccc3Cl)c(-c3ccccc3Cl)n2)CC1`, the results for the IC50 at MAP kinase p38 [1] and against MAP kinase p38 [2] were 1.1 nM and 51 nM, respectively.
For the molecule `CN1C2CCC1CC(Nc1cc3c(ccc(=O)n3-c3c(Cl)cccc3Cl)c(-c3ccccc3Cl)n1)C2` (configuration not stated), the IC50 on MAP kinase p38 [1] was found to be 0.4 nM; on MAP kinase p38 [2], 24 nM. Moreover, the bioavailability in data set [3] was found to be 8.5%. Also, the clearance in data set [4] turned out to be 38 mL/min/kg.
On the same counts, the results for `CC1(C)CC(Nc2cc3c(ccc(=O)n3-c3c(Cl)cccc3Cl)c(-c3ccccc3Cl)n2)CC(C)(C)N1` are 0.8 nM, 10 nM, 5.9% and 9.4 mL/min/kg.
The corresponding values for `CC(C)N1CCC(c2cc(-c3ccccc3Cl)c3ccc(=O)n(-c4c(Cl)cccc4Cl)c3c2)CC1` are 0.2 nM, 5.5 nM, 17% and 39 mL/min/kg.
Regarding `CC(C)N1CCC(c2cc3c(ccc(=O)n3-c3c(Cl)cccc3Cl)c(-c3ccccc3Cl)n2)CC1`, the IC50 on MAP kinase p38 [1] is 1.3 nM; at MAP kinase p38 [2] it was 4.9 nM. This molecule registered a bioavailability in data set [3] of 32%. The clearance in data set [4] was determined as 51 mL/min/kg.
Regarding `CC1(C)CC(Nc2cc(-c3ccccc3Cl)c3c(c2)N(c2c(Cl)cccc2Cl)C(=O)NC3)CC(C)(C)N1`, the IC50 came out at 3.7 nM at MAP kinase p38 [1] and 200 nM against MAP kinase p38 [2].
On to `O=c1ccc2c(-c3ccccc3Cl)nc(NC3CCNCC3)cc2n1-c1c(Cl)cccc1Cl`, for which the IC50 at MAP kinase p38 [1] is reported as 0.2 nM; against MAP kinase p38 [2], 18 nM.
In the case of `CN1C(C)(C)CC(Nc2cc3c(ccc(=O)n3-c3c(Cl)cccc3Cl)c(-c3ccccc3Cl)n2)CC1(C)C`, the IC50 against MAP kinase p38 [1] was 1.1 nM; against MAP kinase p38 [2], 13 nM.
